# Assay results reported in patent US6822146B2, “Sulfonylurea-tolerant sunflower line M7” (priority 2000, dated 2004).
# Legend:
# BC4-M5M7 = assay: Test B greenhouse phytotoxicity, BC4-M5M7; type: in vivo, sunflower
# Procedure: (§1) A greenhouse experiment was conducted to evaluate the spectrum of tolerance of three homozygous resistant mutants to various herbicides inhibiting acetolactate synthase (ALS) as their mode of action. The inbred lines tested were the 5th generation self-pollinated maintainers, M5M7, M5M11 and M5M12, as well as the 4th generation male sterile back-crosses BC4-M5M7, BC4-M5M11 and BC4-M5M12. Treatments of formulated herbicides were applied post-emergence at the 4-leaf stage. Application rates of the test herbicides were chosen to coincide with the rates commonly used in the crops for which they are registered. The application rate of imazethapyr was chosen to match the rate recommended to control parasitic weeds in sunflowers by L. García-Torres et al., Weed Technology 1995, 9, 819-824. Wild type H89 inbred sunflower was not included in this test, because the many of the tested herbicides are known to be efficacious in controlling volunteer sunflower as a weed. Treatments were replicated twice. […] A rating of 0% phytotoxicity means no crop injury.
# [1] = test system: BC4-M5M12 × PHA155 hybrid; assay: Test E injury to sunflower hybrid; type: in vivo; conditions: in vivo
# Procedure: (§2) Based on the results from Test D, a modified protocol was developed to include three timings of post-emergence treatment. The hybrid BC4-M5M12 (female parent)×PHA155 restorer line (male parent) described in Test C was used in this test. Various herbicide programs were tested using three replications. […] Seed coatings of these formulated herbicides were applied to 6 kg of seeds in such amount that considering the distribution of the coated seeds in each pot, the herbicide active ingredient (a.i.) application rates per hectare were as indicated.
# (§3) The treatments were applied similar to the methods described for Test D. Pre-emergence applications were broadcast only, not soil incorporated. For pre-emergence application, the pots were sprayed using the high rates of the herbicides two days after sowing the sunflower seeds. Post-emergence treatments were applied at the 4-6 leaf stage of sunflower (corresponding to early stage of Orobanche attachment; identified as “T1”), the 6-8 leaf stage of sunflower (corresponding to the mid stage of Orobanche attachment; nodules <5 mm diameter; identified as “T2”) and 8-12 leaf stage of sunflower (corresponding to late stage of Orobanche attachment; identified as “T3”). The mid-stage applications included the high as well as low application rates of each herbicide.
# (§4) For comparison were also included in this test other acetolactate synthase-inhibiting herbicides reported in the literature as giving good weed control of Orobanche (L. García-Torres et al., Weed Research 1994, 34, 395-402; L. García-Torres et al., Weed Technology 1995, 9, 819-824; J. Hershenhorn et al., Weed Technology 1998, 12, 108-114).
# BC4-M5M12 = assay: Test B greenhouse phytotoxicity, BC4-M5M12; type: in vivo, sunflower
# Procedure: as §1
# M5M11 = assay: Test B greenhouse phytotoxicity, M5M11; type: in vivo, sunflower
# Procedure: as §1
# M5M7 = assay: Test B greenhouse phytotoxicity, M5M7; type: in vivo, sunflower
# Procedure: as §1
# M5M12 = assay: Test B greenhouse phytotoxicity, M5M12; type: in vivo, sunflower
# Procedure: as §1
# O. cernua = conditions: preemergence application of a low dose (2 to 6 g/ha), with sunflower tolerance; cited from earlier work
# Orobanche cumana = assay: Test E control of Orobanche cumana in resistant sunflower hybrid; type: in vivo
# Procedure: The effect of the various treatments was evaluated 35 days after sowing. The sunflower roots were cleaned by washing in water, and the presence of Orobanche nodules was determined visually and by weighing root wet mass in comparison to check plants free of Orobanche infestation. […] The nodules caused by Orobanche increased root weight, and a correlation (r=0.7) was found between visual scores and weight measurements. Thus the weighing technique could be used to corroborate visual efficacy scorings. Orobanche emergence was also scored but found to be less useful to evaluate treatment efficiency at the evaluation timing of this test.
# as §2, §3, §4
# BC4-M5M11 = assay: Test B greenhouse phytotoxicity, BC4-M5M11; type: in vivo, sunflower
# Procedure: as §1
# [2] = test system: homozygous progeny of the three mutant sources; type: in vivo, sunflower; conditions: Test B application rates, post-emergence
# Procedure: as §1
# Polygonum persicaria = assay: Test H weed control, field plots; type: in vivo; conditions: 36 days after treatment; g a.i./ha: tribenuron-methyl 22.5, metsulfuron-methyl 6, ethametsulfuron-methyl 16, imazapyr isopropylamine salt 15, aclonifen 1200
# Excerpt: (§5) Field plots (2 m×5 m) were tilled to remove weed cover and then seeded in rows with the following weeds: Capsella bursa pastoris, Atriplex patula, Chenopodium album, Stellaria media, Mecurialis annua, Polygonum persicaria, Amaranthus retroflexus, Polygonum convolvulus, Polygonum aviculare, Viola arvensis, Matricaria inodora, Anagallis arvensis, Sinapis arvensis, Setaria viridis, Solanum nigrum and Echinochloa crusgalli. After 21 days from sowing, at which time the weeds had reached the 2- to 6-leaf stage, herbicide treatments were applied to the plots according to a complete randomized block design, with each herbicide treatment triply replicated. The herbicides were sprayed using standard flat fan nozzles moved perpendicular to the sown lines using water spray volumes of about 296 L/ha.
# (§6) Assessments of weed control were made by visual inspection 36 days after herbicide treatment. A visual rating system was used based on a percentage scale from 0 to 100% compared to an adjacent untreated control plot. On this scale 0 represents no visual differences relative to an untreated control and 100 represents complete control of the given weed species.
# Setaria viridis = assay: Test H weed control, field plots; type: in vivo; conditions: 36 days after treatment; g a.i./ha: tribenuron-methyl 22.5, metsulfuron-methyl 6, ethametsulfuron-methyl 16, imazapyr isopropylamine salt 15, aclonifen 1200
# Excerpt: as §5, §6
# Polygonum aviculare = assay: Test H weed control, field plots; type: in vivo; conditions: 36 days after treatment; g a.i./ha: tribenuron-methyl 22.5, metsulfuron-methyl 6, ethametsulfuron-methyl 16, imazapyr isopropylamine salt 15, aclonifen 1200
# Excerpt: as §5, §6
# Mercurialis annua = assay: Test H weed control, field plots; type: in vivo; conditions: 36 days after treatment; g a.i./ha: tribenuron-methyl 22.5, metsulfuron-methyl 6, ethametsulfuron-methyl 16, imazapyr isopropylamine salt 15, aclonifen 1200
# Excerpt: as §5, §6
# Capsella bursa pastoris = assay: Test H weed control, field plots; type: in vivo; conditions: 36 days after treatment; g a.i./ha: tribenuron-methyl 22.5, metsulfuron-methyl 6, ethametsulfuron-methyl 16, imazapyr isopropylamine salt 15, aclonifen 1200
# Excerpt: as §5, §6
# Viola arvensis = assay: Test H weed control, field plots; type: in vivo; conditions: 36 days after treatment; g a.i./ha: tribenuron-methyl 22.5, metsulfuron-methyl 6, ethametsulfuron-methyl 16, imazapyr isopropylamine salt 15, aclonifen 1200
# Excerpt: as §5, §6
# Polygonum convolvulus = assay: Test H weed control, field plots; type: in vivo; conditions: 36 days after treatment; g a.i./ha: tribenuron-methyl 22.5, metsulfuron-methyl 6, ethametsulfuron-methyl 16, imazapyr isopropylamine salt 15, aclonifen 1200
# Excerpt: as §5, §6
# Anagallis arvensis = assay: Test H weed control, field plots; type: in vivo; conditions: 36 days after treatment; g a.i./ha: tribenuron-methyl 22.5, metsulfuron-methyl 6, ethametsulfuron-methyl 16, imazapyr isopropylamine salt 15, aclonifen 1200
# Excerpt: as §5, §6
# Echinochloa crus-galli = assay: Test H weed control, field plots; type: in vivo; conditions: 36 days after treatment; g a.i./ha: tribenuron-methyl 22.5, metsulfuron-methyl 6, ethametsulfuron-methyl 16, imazapyr isopropylamine salt 15, aclonifen 1200
# Excerpt: as §5, §6
# Amaranthus retroflexus = assay: Test H weed control, field plots; type: in vivo; conditions: 36 days after treatment; g a.i./ha: tribenuron-methyl 22.5, metsulfuron-methyl 6, ethametsulfuron-methyl 16, imazapyr isopropylamine salt 15, aclonifen 1200
# Excerpt: as §5, §6
# Matricaria inodora = assay: Test H weed control, field plots; type: in vivo; conditions: 36 days after treatment; g a.i./ha: tribenuron-methyl 22.5, metsulfuron-methyl 6, ethametsulfuron-methyl 16, imazapyr isopropylamine salt 15, aclonifen 1200
# Excerpt: as §5, §6
# Atriplex patula = assay: Test H weed control, field plots; type: in vivo; conditions: 36 days after treatment; g a.i./ha: tribenuron-methyl 22.5, metsulfuron-methyl 6, ethametsulfuron-methyl 16, imazapyr isopropylamine salt 15, aclonifen 1200
# Excerpt: as §5, §6
# Solanum nigrum = assay: Test H weed control, field plots; type: in vivo; conditions: 36 days after treatment; g a.i./ha: tribenuron-methyl 22.5, metsulfuron-methyl 6, ethametsulfuron-methyl 16, imazapyr isopropylamine salt 15, aclonifen 1200
# Excerpt: as §5, §6
# Sinapis arvensis = assay: Test H weed control, field plots; type: in vivo; conditions: 36 days after treatment; g a.i./ha: tribenuron-methyl 22.5, metsulfuron-methyl 6, ethametsulfuron-methyl 16, imazapyr isopropylamine salt 15, aclonifen 1200
# Excerpt: as §5, §6
# Stellaria media = assay: Test H weed control, field plots; type: in vivo; conditions: 36 days after treatment; g a.i./ha: tribenuron-methyl 22.5, metsulfuron-methyl 6, ethametsulfuron-methyl 16, imazapyr isopropylamine salt 15, aclonifen 1200
# Excerpt: as §5, §6
# Chenopodium album = assay: Test H weed control, field plots; type: in vivo; conditions: 36 days after treatment; g a.i./ha: tribenuron-methyl 22.5, metsulfuron-methyl 6, ethametsulfuron-methyl 16, imazapyr isopropylamine salt 15, aclonifen 1200
# Excerpt: as §5, §6
structure (smiles),measurement,setting,value
"COc1nc(C)nc(NC(=O)NS(=O)(=O)c2ccccc2Cl)n1 [Chlorsulfuron, chlorsulfuron]",Maximum Phytotoxicity,BC4-M5M7; in vivo,45%
same,Injury,[1],0%
same,Maximum Phytotoxicity,BC4-M5M12; in vivo,45%
same,Maximum Phytotoxicity,M5M11; in vivo,50%
same,Maximum Phytotoxicity,M5M7; in vivo,47.5%
same,Maximum Phytotoxicity,M5M12; in vivo,45%
same,control of O. cernua,O. cernua,75-85%
same,relative efficacy in controlling Orobanche,"Orobanche cumana; Test E rates, metsulfuron-methyl compared with tribenuron-methyl",less efficacious in controlling Orobanche
same,Control,Orobanche cumana; pre-emergence 2 g a.i./ha,13%
same,Control,Orobanche cumana; pre-emergence 10 g a.i./ha,58%
same,Maximum Phytotoxicity,BC4-M5M11; in vivo,50%
same,tolerance of the mutants,[2],somewhat sensitive
"CCOc1nc(NC)nc(NC(=O)NS(=O)(=O)c2ccccc2C(=O)OC)n1 [Ethametsulfuron-methyl, ethametsulfuron-methyl]",Maximum Phytotoxicity,"BC4-M5M7; BC4-M5M7, 15 g a.i./ha post-emergence 4-leaf stage",5%
same,"weed control, visual rating: Polygonum persicaria",Polygonum persicaria,0%
same,"weed control, visual rating: Setaria viridis",Setaria viridis,0%
same,"weed control, visual rating: Polygonum aviculare",Polygonum aviculare,0%
same,"weed control, visual rating: Mercurialis annua",Mercurialis annua,0%
same,"weed control, visual rating: Capsella bursa pastoris",Capsella bursa pastoris,100%
same,"weed control, visual rating: Viola arvensis",Viola arvensis,0%
same,"weed control, visual rating: Polygonum convolvulus",Polygonum convolvulus,0%
same,"weed control, visual rating: Anagallis arvensis",Anagallis arvensis,100%
same,"weed control, visual rating: Echinochloa crus-galli",Echinochloa crus-galli,33%
same,"weed control, visual rating: Amaranthus retroflexus",Amaranthus retroflexus,82%
same,"weed control, visual rating: Matricaria inodora",Matricaria inodora,67%
same,"weed control, visual rating: Atriplex patula",Atriplex patula,0%
same,"weed control, visual rating: Solanum nigrum",Solanum nigrum,70%
same,"weed control, visual rating: Sinapis arvensis",Sinapis arvensis,97%
same,Maximum Phytotoxicity,"BC4-M5M12; BC4-M5M12, 15 g a.i./ha post-emergence 4-leaf stage",0%
same,Maximum Phytotoxicity,"M5M11; M5M11, 15 g a.i./ha post-emergence 4-leaf stage",0%
same,Maximum Phytotoxicity,"M5M7; M5M7, 15 g a.i./ha post-emergence 4-leaf stage",10%
same,Maximum Phytotoxicity,"M5M12; M5M12, 15 g a.i./ha post-emergence 4-leaf stage",0%
same,Maximum Phytotoxicity,"BC4-M5M11; BC4-M5M11, 15 g a.i./ha post-emergence 4-leaf stage",10%
same,"weed control, visual rating: Stellaria media",Stellaria media,79%
same,"weed control, visual rating: Chenopodium album",Chenopodium album,0%
same,tolerance of the mutants,[2],extremely resistant
